Reference: US20250163057A1, “DCN-1 MODULATING COMPOUNDS AND METHODS OF USE THEREOF” (Cellarity, Inc., priority 2023, published 2025)
Read-outs that look alike come from different tables or passages of the source.

Experiments:
[1] = test system: Cullin-3 (CUL3) neddylation; experiment: AlphaLISA assay for Cullin-3 (CUL3) neddylation in TF 1 cells; type: cell-based; conditions: 3 hours treatment
How it was run: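 TF 1 cells in unsupplemented IMDM treated with compound concentrations for 3 h, then lysed. CUL3 neddylation detected by AlphaLISA (biotinylated anti-NEDD8, anti-CUL3 acceptor beads overnight, streptavidin donor beads 1 h); normalized to vehicle (0%) and 1 μM DI-1548 (100%), IC50 from Hill fits.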

[2] = biological target: DCN1 (DCUND1) protein PONY domain (Homo sapiens (Human), UniProt Q96GG9); experiment: TR-FRET assay, DCN1 binding with FAM-labeled probe
Sequence of DCN1 (DCUND1) protein PONY domain (Q96GG9 60-248): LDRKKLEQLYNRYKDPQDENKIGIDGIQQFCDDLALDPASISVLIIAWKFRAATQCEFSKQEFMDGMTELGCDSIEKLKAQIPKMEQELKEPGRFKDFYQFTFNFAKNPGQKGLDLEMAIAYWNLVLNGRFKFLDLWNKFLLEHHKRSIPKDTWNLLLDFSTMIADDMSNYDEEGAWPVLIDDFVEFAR
How it was run: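 Tb-DCN1 PONY domain (E. coli, biotin/streptavidin-Tb); FAM-labelled non-covalent inhibitor probe; TritonX buffer, 200 mM NaCl; 5 nM DCN1 + 20 nM probe or 0.31 nM DCN1 + 900 nM total probe; 0.1% DMSO; TR-FRET read 1, 5, 24 hrs.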

[3] = 24 hr after treatment with compound, read-out: TR FRET IC50 24 hr
[4] = read-out: TR FRET IC50 1 hr, 1 hr after treatment with compound
[5] = TR FRET IC50 1 hr (nM), 1 hr after treatment with compound

| Compound | IC50 ([1]; Homo sapiens) [nM] | IC50 [2, 3] [nM] | IC50 [2, 4] [nM] | IC50 ([1]; Homo sapiens, TF-1, 3 h) [nM] | IC50 [2, 5] [nM] | IC50 [1] [nM] |
| --- | --- | --- | --- | --- | --- | --- |
| CCN1C(=O)[C@@H](NC(=O)c2ccc3ccoc3c2)[C@@H](C2CC2)c2c(C(=O)N3[C@H](C#N)C[C@H]4C[C@H]43)nn(C3CCOCC3)c21 [Compound I-526] | ≤ 100 | ≤ 200 | ≤ 200 | – | – | – |
| CCN1C(=O)[C@@H](NC(=O)c2cccc(C(F)(F)F)c2)[C@@H](c2ccc(F)cc2)c2c(CNC/C=C/C(=O)N3CCCC3)nn(-c3ccccc3)c21 [Compound I-400] | – | ≤ 200 | ≤ 200 | 100 to 1000 | – | – |
| C=C(CN1CCC1)C(=O)NCc1nn(-c2ccccc2)c2c1[C@@H](C1CC1)[C@@H](NC(=O)c1cccc(C(F)(F)F)c1)C(=O)N2CC (stereo in doubt) [Compound I-636] | – | 1000 to 3000 | – | > 1000 | 1000 to 3000 | – |
| CCN1C(=O)[C@@H](NC(=O)c2cccc(C(F)(F)F)c2)[C@@H](C2CC2)c2c(C(=O)N(C)[C@H](C#N)CCN(C)C3COC3)nn(C3CCOCC3)c21 [Compound I-429] | – | ≤ 200 | ≤ 200 | ≤ 100 | – | – |
| CCN1C(=O)[C@@H](NC(=O)c2cccc3cccnc23)[C@@H](C2CC2)c2c(C(=O)N3[C@H](C#N)C[C@H]4C[C@H]43)nn(C3CCOCC3)c21 [Compound I-527] | – | ≤ 200 | – | 100 to 1000 | 200 to 1000 | – |
| CCN1C(=O)[C@@H](NC(=O)c2cccc(C(F)(F)F)c2)[C@@H](C2CC2)c2c(C(=O)N3CCS(=O)(=O)C[C@@H]3C#N)nn(-c3ccccc3)c21 [Compound I-438, N-((4S,5S)-3-((S)-3-cyano-1,1-dioxidothiomorpholine-4-carbonyl)-4-cyclopropyl-7-ethyl-6-oxo-1-phenyl-4,5,6,7-tetrahydro-1H-pyrazolo[3,4-b]pyridin-5-yl)-3-(trifluoromethyl)benzamide] | – | ≤ 200 | ≤ 200 | ≤ 100 | – | – |
| CCN1C(=O)[C@@H](NC(=O)c2cccc(C(F)(F)F)c2)[C@H](c2ccc(F)cc2)c2c(CNC(=O)C(C)C#N)nn(-c3ccccc3)c21 (stereo partly drawn) [Compound I-641] | – | 200 to 1000 | – | > 1000 | 200 to 1000 | – |
| CCN1C(=O)[C@@H](NC(=O)c2cccc(C(F)(F)F)c2)[C@@H](c2ccc(F)cc2)c2c([C@@H](C)NC(N)=O)nn(-c3ccccc3)c21 [Compound I-499, N-((4S,5S)-7-ethyl-4-(4-fluorophenyl)-6-oxo-1-phenyl-3-((R)-1-ureidoethyl)-4,5,6,7-tetrahydro-1H-pyrazolo[3,4-b]pyridin-5-yl)-3-(trifluoromethyl)benzamide] | – | 1000 to 3000 | – | 100 to 1000 | 1000 to 3000 | – |
| CCN1C(=O)[C@@H](NC(=O)c2cccc(C(F)(F)F)c2)[C@@H](c2ccc(F)cc2)c2c([C@@H](C)NC#N)nn(C3CCOCC3)c21 [Compound I-412] | – | ≤ 200 | ≤ 200 | 100 to 1000 | – | – |
| CCN1C(=O)[C@@H](NC(=O)c2cccc3ncoc23)[C@@H](C2CC2)c2c(C(=O)N3[C@H](C#N)C[C@H]4C[C@H]43)nn(C3CCOCC3)c21 [Compound I-565] | – | ≤ 200 | – | ≤ 100 | 200 to 1000 | – |
| CCN1C(=O)[C@@H](NC(=O)c2cccc(C(F)(F)F)c2)[C@@H](c2ccc(F)cc2)c2c(C(=O)N3CC[C@H](F)[C@H]3C#N)nn(C3CCOCC3)c21 [Compound I-694, N-((4S,5S)-3-((2R,3S)-2-cyano-3-fluoropyrrolidine-1-carbonyl)-7-ethyl-4-(4-fluorophenyl)-6-oxo-1-(tetrahydro-2H-pyran-4-yl)-4,5,6,7-tetrahydro-1H-pyrazolo[3,4-b]pyridin-5-yl)-3-(trifluoromethyl)benzamide] | – | ≤ 200 | ≤ 200 | ≤ 100 | – | – |
| CCN1C(=O)[C@@H](NC(=O)c2c(Cl)ccc(OC)c2F)[C@@H](C2CC2)c2c(C(=O)N3[C@H](C#N)C[C@H]4C[C@H]43)nn(C3CCOCC3)c21 [Compound I-697] | – | 1000 to 3000 | – | > 1000 | 1000 to 3000 | – |
| CCN1C(=O)[C@@H](NC(=O)c2cccc(C(F)(F)F)c2)[C@@H](C2CC2)c2c(C(=O)N3CCN(C)C[C@@H]3C#N)nn(C3CCOCC3)c21 (single isomer, unassigned) [Compound I-431] | – | 200 to 1000 | – | 100 to 1000 | 200 to 1000 | – |
| CCN1C(=O)[C@@H](NC(=O)c2nccc(C(F)(F)F)n2)[C@H](c2ccc(F)cc2)c2c(CNC(=O)/C=C/C(=O)N(C)C)nn(-c3ccccc3)c21 [Compound I-460] | – | 200 to 1000 | – | > 1000 | 200 to 1000 | – |
| CCCn1nc(C(=O)N(CC#N)C2CC2)c2c1N(CC)C(=O)[C@@H](NC(=O)c1cccc(C(F)(F)F)c1)[C@H]2C1CC1 [Compound I-427] | – | 200 to 1000 | – | 100 to 1000 | 1000 to 3000 | – |
| CCN1C(=O)[C@H](NC(=O)c2cccc(C(F)(F)F)c2)[C@H](c2ccc(F)cc2)c2c(C(=O)N3CCC[C@H]3C#N)nn(-c3ccccc3)c21 [Compound I-611] | – | 1000 to 3000 | – | > 1000 | 1000 to 3000 | – |

| Compound | IC50 ([1]; Homo sapiens) [nM] | IC50 [2, 3] [nM] | IC50 [2, 4] [nM] | IC50 ([1]; Homo sapiens, TF-1, 3 h) [nM] | IC50 [2, 5] [nM] | IC50 [1] [nM] |
| --- | --- | --- | --- | --- | --- | --- |
| CCN1C(=O)[C@@H](NC(=O)c2cccc(C(F)(F)F)c2)[C@@H](c2ccc(F)cc2)c2c(CNC/C=C/C(=O)N(C)C)nn(-c3ccccc3)c21 [Compound I-490] | – | ≤ 200 | ≤ 200 | 100 to 1000 | – | – |
| CCN1C(=O)[C@@H](NC(=O)C23CC(C(F)F)(C2)C3)[C@@H](C2CC2)c2c(C(=O)N3[C@H](C#N)C[C@H]4C[C@H]43)nn(C3CCOCC3)c21 [Compound I-662] | – | 1000 to 3000 | – | > 1000 | 1000 to 3000 | – |
| CCN1C(=O)[C@@H](NC(=O)c2ccc3scnc3c2)[C@@H](C2CC2)c2c(C(=O)N3[C@H](C#N)C[C@H]4C[C@H]43)nn(C3CCOCC3)c21 [Compound I-483] | – | 200 to 1000 | – | > 1000 | 1000 to 3000 | – |
| CCN1C(=O)[C@@H](NC(=O)c2cccc(C(F)(F)F)c2)[C@@H](C2CC2)c2c(C(=O)N(CC#N)CCCN(C)C)nn(C3CCOCC3)c21 [Compound I-683] | – | ≤ 200 | – | ≤ 100 | 200 to 1000 | – |
| CCN1C(=O)[C@@H](NC(=O)c2cccn(C3CC3)c2=O)[C@@H](C2CC2)c2c(C(=O)N3[C@H](C#N)C[C@H]4C[C@H]43)nn(C3CCOCC3)c21 [Compound I-625] | – | 1000 to 3000 | – | – | 1000 to 3000 | > 1000 |
| CCN1C(=O)[C@@H](NC(=O)c2csc(C)c2)[C@@H](C2CC2)c2c(C(=O)N3[C@H](C#N)C[C@H]4C[C@H]43)nn(C3CCOCC3)c21 [Compound I-481] | ≤ 100 | ≤ 200 | ≤ 200 | – | – | – |
| CCN1C(=O)[C@@H](NC(=O)c2cccc(C(F)(F)F)c2)[C@H](c2ccc(F)cc2)c2c(CN(C)C(=O)CC#N)nn(-c3ccccc3)c21 [Compound I-403] | – | 200 to 1000 | – | 100 to 1000 | 200 to 1000 | – |
| CCN1C(=O)[C@@H](NC(=O)c2cccc(C(F)(F)F)c2)[C@@H](C2CC2)c2c(C(=O)N3[C@H](C#N)CC[C@@H]3C)nn(C3CCOCC3)c21 [Compound I-700] | – | 200 to 1000 | – | 100 to 1000 | 1000 to 3000 | – |
| CCN1C(=O)[C@@H](NC(=O)c2ccc3nn[nH]c3c2)[C@@H](C2CC2)c2c(C(=O)N3[C@H](C#N)C[C@H]4C[C@H]43)nn(C3CCOCC3)c21 [Compound I-705] | – | 1000 to 3000 | – | > 1000 | 1000 to 3000 | – |
| CCN1C(=O)[C@@H](NC(=O)c2cccc(C(F)(F)F)c2)[C@@H](C2CCC2)c2c(C(=O)N(CC#N)C3CC3)nn(C3CCOCC3)c21 [Compound I-515] | – | ≤ 200 | – | 100 to 1000 | 200 to 1000 | – |
| CCN1C(=O)[C@H](NC(=O)c2cccc(C(F)(F)F)c2)[C@H](c2ccc(F)cc2)c2c(C(=O)N(CC#N)CCC(=O)OC)nn(-c3ccccc3)c21 (stereo in doubt) [Compound I-461] | – | 1000 to 3000 | – | > 1000 | 1000 to 3000 | – |
| CCCn1nc(C(=O)N2CCC[C@H]2C#N)c2c1N(CC)C(=O)[C@@H](NC(=O)c1cccc(C(F)(F)F)c1)[C@H]2C1CC1 [Compound I-467] | – | ≤ 200 | – | 100 to 1000 | 1000 to 3000 | – |
| CCN1C(=O)[C@@H](NC(=O)c2cccc(C(F)(F)F)c2)[C@@H](c2ccc(F)cc2)c2c(CN(C#N)CCO)nn(-c3ccccc3)c21 (racemic) [Compound I-244, ˜{N}—[˜{rac}-(4˜{S},5˜{S})-3-[[cyano(2-hydroxyethyl)amino]methyl]-7-ethyl-4-(4-fluorophenyl)-6-oxo-1-phenyl-4,5-dihydropyrazolo[3,4-b]pyridine-5-yl]-3-(trifluoromethyl)benzamide] | – | 200 to 1000 | – | 100 to 1000 | 1000 to 3000 | – |
| CCN1C(=O)[C@@H](NC(=O)c2ccc3ocnc3c2)[C@@H](C2CC2)c2c(C(=O)N3[C@H](C#N)C[C@H]4C[C@H]43)nn(C3CCOCC3)c21 [Compound I-601] | – | 200 to 1000 | – | 100 to 1000 | 1000 to 3000 | – |
| CCN1C(=O)[C@@H](NC(=O)c2cccc(C(F)(F)F)c2)[C@@H](C2CC2)c2c(C(=O)N(C)C(C)C#N)nn(C3CC3)c21 (stereo partly drawn) [Compound I-492] | – | 200 to 1000 | – | ≤ 100 | 200 to 1000 | – |
